For the experiment, the system named is L1210 leukemia ip in BDF1 mice, survival T/C. Briefly: NCI In Vivo Anticancer Drug Screen. Data for tumor model L1210 Leukemia (intraperitoneal) in B6D2F1 (BDF1) mice. The conditions noted are these: endpoint: mean survival time, higher = longer survival. An outline of the steps: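 Mice bearing the transplanted tumor received compound or vehicle. Survival of the treated group was divided by that of the vehicle-treated control group to give the ratio.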

[1] abbreviates: dose: 100.0 mg/kg/injection, schedule: Q04DX003 (ip), vehicle: Klucel (hydroxypropylcellulose) (HPC).
Where [2] appears, read: dose: 200.0 mg/kg/injection, schedule: Q04DX003 (ip), vehicle: Klucel (hydroxypropylcellulose) (HPC).
Where [3] appears, read: dose: 400.0 mg/kg/injection, schedule: Q04DX003 (ip), vehicle: Klucel (hydroxypropylcellulose) (HPC).
The mark [4] stands for this setting: dose: 100.0 mg/kg/injection, schedule: Q01DX001 (ip), vehicle: Klucel (hydroxypropylcellulose) (HPC).
The mark [5] stands for this setting: dose: 200.0 mg/kg/injection, schedule: Q01DX001 (ip), vehicle: Klucel (hydroxypropylcellulose) (HPC).
The mark [6] stands for this setting: dose: 25.0 mg/kg/injection, schedule: Q04DX003 (ip), vehicle: saline.
The mark [7] stands for this setting: dose: 50.0 mg/kg/injection, schedule: Q04DX003 (ip), vehicle: saline.
The mark [8] stands for this setting: dose: 100.0 mg/kg/injection, schedule: Q04DX003 (ip), vehicle: saline.
[9] abbreviates: dose: 100.0 mg/kg/injection, schedule: Q01DX009 (ip), vehicle: Klucel (hydroxypropylcellulose) (HPC).
[10] abbreviates: dose: 200.0 mg/kg/injection, schedule: Q01DX009 (ip), vehicle: Klucel (hydroxypropylcellulose) (HPC).
Setting [11] is: dose: 400.0 mg/kg/injection, schedule: Q01DX009 (ip), vehicle: Klucel (hydroxypropylcellulose) (HPC).
Setting [12] is: dose: 200.0 mg/kg/injection, schedule: Q04DX003 (ip), vehicle: saline.
Where [13] appears, read: dose: 300.0 mg/kg/injection, schedule: Q01DX009 (ip), vehicle: other.
Where [14] appears, read: dose: 400.0 mg/kg/injection, schedule: Q04DX003 (ip), vehicle: saline.
Where [15] appears, read: dose: 400.0 mg/kg/injection, schedule: Q01DX001 (ip), vehicle: Klucel (hydroxypropylcellulose) (HPC).
[16] abbreviates: dose: 100.0 mg/kg/injection, schedule: Q01DX001 (ip), vehicle: saline.
Where [17] appears, read: dose: 200.0 mg/kg/injection, schedule: Q01DX001 (ip), vehicle: saline.
Setting [18] is: dose: 400.0 mg/kg/injection, schedule: Q01DX001 (ip), vehicle: saline.

Among the data in PubChem BioAssay AID248 (DTP/NCI, 2004) are T/C values, retold here.

“And” between values parts separate entries of the source, which are not always exact repeats. Identical values can stand only once. Toxic doses and inconclusive results are not listed.

As to `O=C(COc1ccc(Cl)c(Cl)c1)Nc1ccc[n+](Cc2ccc(S(=O)(=O)F)c(Cl)c2)c1`, the T/C is 98 % of control under setting [1], 93 % of control under setting [2] and 97 % of control under setting [3].
With `O=C(N/N=C/c1ccc(Cl)cc1Cl)c1ccccc1`, the T/C is 101 % of control under setting [1] and 95 % of control under setting [2].
`O=C1C2CCN(CC2)C1Cn1cnc2c(Cl)ncnc21` (centres undefined): the T/C by setting is: under setting [4], 95 % of control; under setting [5], 98 % of control.
Take `N#CCN(CC#N)CCCN(CC#N)CCCN(CC#N)CC#N`: the T/C runs as follows: (dose: 12.5 mg/kg/injection, schedule: Q01DX001 (ip), vehicle: saline with Tween-80) 97 % of control; (dose: 25.0 mg/kg/injection, schedule: Q01DX001 (ip), vehicle: saline with Tween-80) 108 % of control; (dose: 50.0 mg/kg/injection, schedule: Q01DX001 (ip), vehicle: saline with Tween-80) 102 % of control.
With `O=C(O)c1c(Br)c(Br)c(Br)c(Br)c1-c1c2ccc(=O)c(O)c-2oc2c(O)c(O)ccc12`, the T/C was 108 % of control (dose: 12.5 mg/kg/injection, schedule: Q04DX003 (ip), vehicle: saline); 103 % of control under setting [6]; 105 % of control under setting [7]; 102 % of control under setting [8].
On to `CCOC(=O)C1CCc2c(ccc3ccccc23)N1C(C)=O` (centres undefined), for which the T/C reads like this: under setting [9], 94 % of control; under setting [10], 88 % of control; under setting [11], 91 % of control.
`CC(O)(C(=O)O)c1ccccc1` (centres undefined): the T/C was 99 % of control (dose: 75.0 mg/kg/injection, schedule: Q01DX009 (ip), vehicle: other); 100 % of control under setting [8]; 94 % of control (dose: 150.0 mg/kg/injection, schedule: Q01DX009 (ip), vehicle: other); 105 % of control under setting [12]; 100 % of control under setting [13]; 91 % of control under setting [14].
For the compound `COC(=N)c1ccc(Cl)cc1`, the T/C is 88 % of control (dose: 100.0 mg/kg/injection, schedule: Q01DX009 (ip), vehicle: saline with Tween-80) and 93 % of control (dose: 200.0 mg/kg/injection, schedule: Q01DX009 (ip), vehicle: saline with Tween-80).
On to `COc1ncnc2c1c(C#N)cn2C1OC(CO)C(O)C1O` (centres undefined), for which the T/C is 124 % of control (dose: 6.25 mg/kg/injection, schedule: Q01DX009 (ip), vehicle: saline); 119 % of control (dose: 50.0 mg/kg/injection, schedule: Q01DX009 (ip), vehicle: saline); 169 % of control (dose: 100.0 mg/kg/injection, schedule: Q01DX009 (ip), vehicle: saline); 93 % of control (dose: 200.0 mg/kg/injection, schedule: Q01DX005 (ip), vehicle: saline).
`N=C(N)SCC(=O)c1ccc([N+](=O)[O-])cc1`: the T/C (dose: 100.0 mg/kg/injection, schedule: Q04DX002 (ip), vehicle: saline with Tween-80) is 88 % of control and the T/C (dose: 200.0 mg/kg/injection, schedule: Q04DX002 (ip), vehicle: saline with Tween-80) was 95 % of control.
For `NC1CC(N)CC(N)C1` (centres undefined), the T/C by setting is: under setting [6], 92 % of control; under setting [7], 99 % of control; under setting [8], 86 % of control and 91 % of control.
Turning to `O=c1c2[nH]cnc2ncn1Cc1ccccc1`, the T/C by setting is: under setting [4], 102 % of control; under setting [5], 98 % of control; under setting [15], 109 % of control.
As to `Cc1ccc(S(=O)(=O)OC(CO)C(O)C(O)C(CO)OS(=O)(=O)c2ccc(C)cc2)cc1` (centres undefined) (tested in a mixture with another compound), the T/C (dose: 100.0 mg/kg/injection, schedule: Q04DX002 (ip), vehicle: Klucel (hydroxypropylcellulose) (HPC)) is 86 % of control; the T/C (dose: 200.0 mg/kg/injection, schedule: Q04DX002 (ip), vehicle: Klucel (hydroxypropylcellulose) (HPC)) is 101 % of control; the T/C (dose: 400.0 mg/kg/injection, schedule: Q04DX002 (ip), vehicle: Klucel (hydroxypropylcellulose) (HPC)) was 93 % of control.
For `O=C(c1ccccc1)c1cc(CN(C2CCCCC2)C2CCCCC2)c(O)cc1O`, the T/C is, setting by setting: under setting [16], 90 % of control; under setting [17], 91 % of control; under setting [18], 96 % of control.
In the case of `N=C(N)SC1c2ccccc2-c2ccc(Br)cc21` (centres undefined), the T/C was 104 % of control (dose: 75.0 mg/kg/injection, schedule: Q01DX001 (ip), vehicle: carboxymethylcellulose (CMC)) and 91 % of control (dose: 150.0 mg/kg/injection, schedule: Q01DX001 (ip), vehicle: carboxymethylcellulose (CMC)).
Take `O=c1c2c(c(=O)c(=O)c1=O)Nc1ccccc1N2`: the T/C under setting [16] is 98 % of control, the T/C under setting [17] is 104 % of control and the T/C under setting [18] was 98 % of control.
For the compound `O=S(=O)(O)CC(NCc1ccccc1)c1ccccc1` (centres undefined), the T/C by setting is: (dose: 100.0 mg/kg/injection, schedule: Q04DX003 (ip), vehicle: other) 100 % of control; (dose: 200.0 mg/kg/injection, schedule: Q04DX003 (ip), vehicle: other) 97 % of control; (dose: 400.0 mg/kg/injection, schedule: Q04DX003 (ip), vehicle: other) 94 % of control.
`CC1(C)N=C(N)N=C(N)N1c1cccc(CCCCCc2ccccc2)c1`: the T/C (dose: 25.0 mg/kg/injection, schedule: Q01DX001 (ip), vehicle: saline) is 94 % of control.
In the case of `CC(CN(CCNc1ccccc1)c1ccccc1)c1ccccc1` (centres undefined), the T/C runs as follows: (dose: 25.0 mg/kg/injection, schedule: Q01DX009 (ip), vehicle: other) 102 % of control; (dose: 50.0 mg/kg/injection, schedule: Q01DX009 (ip), vehicle: other) 105 % of control; (dose: 100.0 mg/kg/injection, schedule: Q01DX009 (ip), vehicle: other) 100 % of control; under setting [8], 100 % of control; (dose: 200.0 mg/kg/injection, schedule: Q01DX009 (ip), vehicle: other) 104 % of control; under setting [12], 92 % of control. For the same compound, the T/C was 96 % of control under setting [13] and 86 % of control under setting [14].
As for `CNCC(NC)c1cc(OC)c(OC)c(OC)c1` (centres undefined), the T/C reads like this: under setting [8], 94 % of control; under setting [12], 95 % of control; under setting [14], 94 % of control.
For `COc1cc([N+](=O)[O-])c2c(ccc[n+]2C)c1OC`, the T/C was 98 % of control (dose: 100.0 mg/kg/injection, schedule: Q04DX003 (ip), vehicle: saline with Tween-80) and 89 % of control (dose: 200.0 mg/kg/injection, schedule: Q04DX003 (ip), vehicle: saline with Tween-80).
In the case of `COc1cccc(OC)c1-c1oc2ccccc2c(=O)c1O`, the T/C is 94 % of control (dose: 100.0 mg/kg/injection, schedule: Q01DX009 (ip), vehicle: acetone); 95 % of control under setting [8]; 95 % of control (dose: 200.0 mg/kg/injection, schedule: Q01DX009 (ip), vehicle: acetone); 94 % of control under setting [12]; 95 % of control (dose: 400.0 mg/kg/injection, schedule: Q01DX009 (ip), vehicle: acetone); 94 % of control under setting [14].
Take `NC(=O)CSc1nnc(SCC(N)=O)s1`: the T/C under setting [1] is 106 % of control, the T/C under setting [2] is 101 % of control and the T/C under setting [3] is 90 % of control.
As to `Nc1ncnc(N)c1N`, the T/C is, setting by setting: (dose: 100.0 mg/kg/injection, schedule: Q01DX001 (ip), vehicle: saline with Tween-80) 104 % of control; (dose: 200.0 mg/kg/injection, schedule: Q01DX001 (ip), vehicle: saline with Tween-80) 105 % of control; (dose: 400.0 mg/kg/injection, schedule: Q01DX001 (ip), vehicle: saline with Tween-80) 98 % of control.
`CC1CC=CCC1/C=N/NC(N)=O` (centres undefined): the T/C runs as follows: under setting [4], 107 % of control; under setting [5], 104 % of control; under setting [15], 98 % of control.
With `C/C(=N\O)C(=O)c1ccccc1`, the T/C reads like this: under setting [9], 98 % of control; under setting [1], 107 % of control; under setting [8], 103 % of control; under setting [10], 100 % of control; under setting [2], 100 % of control; under setting [12], 107 % of control. The T/C is, setting by setting: under setting [11], 93 % of control; under setting [3], 104 % of control; under setting [14], 108 % of control.
